Data taken from article PMC12128972, “TYRA-300, an FGFR3-selective inhibitor, promotes bone growth in two FGFR3-driven models of chondrodysplasia” (JCI Insight, 2025).
Where “and” joins values, the source holds several entries; their conditions need not be identical. Equal values may be shown once.

What was measured:
wild-type C57BL/6J mice = assay: Wild-type mouse growth velocity study; assay type: in vivo; set-up: nasoanal length, individual mice: unit not given here; conditions: for femur length by calipers, individual mice / tibia length by calipers, individual mice: final day of treatment (8 weeks of age), in mm (unit assumed); for femurs longer than vehicle / tibias longer than vehicle: 4 weeks of treatment
Method: To determine the in vivo effect of FGFR3 inhibition under normal physiologic conditions, TYRA-300 was tested in a growth velocity assay in wild-type mice ([32]). In this study, wild-type C57BL/6J mice were dosed orally with TYRA-300 once daily from 4 to 8 weeks of age. […] Based on the doses evaluated for infigratinib in oncology and ACH, a lower dose was thought to be more appropriate for long-term treatment of pediatric growth–related conditions. We therefore initially explored doses in the 8 to 14 mg/kg range in this model. […] Specifically, after treatment with 12 mg/kg TYRA-300, the tibias were on average 3.9% longer than the tibias of mice that received treatment with vehicle, and the femurs were on average 5.0% longer after treatment; additionally, with 14 mg/kg TYRA-300, the tibias were 6.4% longer and the femurs were 8.2% longer. There was no difference in body weight among the treatment groups (data not shown).
At 21 days of age, female C57BL/6J mice (The Jackson Laboratory) were subject to nasoanal length and nasotail length measurement while under anesthesia. Tail length was calculated by subtracting nasoanal length from nasotail length. Body weights were also recorded. One week later, at 28 days of age, nasoanal lengths and body weights were measured again and mice were randomized to treatment groups of 12 mice per group according to nasoanal length. TYRA-300 was dissolved in 30% hydroxypropyl-β-cyclodextrin for administration by oral gavage. Mice were dosed orally with TYRA-300 or vehicle control once daily (QD) for 4 weeks, and nasoanal lengths and body weights were monitored once weekly, along with daily clinical observations. Mouse tibias and femurs were collected and measured with calipers at the end of the study.

[1] = system: femurs of Fgfr3^Y367C/+ mice; assay: Fgfr3Y367C/+ mice: microCT of femurs (SOC bone volume, BMD, BV/TV); assay type: in vivo, mouse; conditions: 1.2 mg/kg s.c. daily for 15 days
Method: Finally, measurements of trabecular bone quality were performed using μCT imaging of the femurs (Supplemental Figure 2).
Femurs were placed in 70% ethanol at 4°C and measured on the Skyscan-1272 (Bruker) with the following parameters: 60 kV, 166 μA, 0.25 mm aluminum filter. Within the femurs, the trabecular parameters were obtained at 5 μm voxel resolution in a ROI (normalized to 7% of the femur length in size) beginning 255 μm proximal to the distal growth plate for controls, 25 μm for Fgfr3^Y367C/+ + vehicle, and 35 μm for Fgfr3^Y367C/+ + TYRA-300. The BMD and BV/TV of the metaphysis were measured using on a set of sections located within the secondary spongiosa under the growth plate. The measured volume was chosen to be proportional to the femur length (typically 630 μm for control animals and 310 μm for Fgfr3^Y367C/+ + vehicle and 415 μm for Fgfr3^Y367C/+ + TYRA-300.) Scan reconstruction was done using NRecon (v 1.7.4.6). Scan orientation was done using DataViewer (v 1.7.0.1). 3D Analysis for trabecular bone was performed using CT Analyzer (v 1.23.0.2).

[2] = system: Fgfr3^N534K/+ mouse model of HCH; assay: Fgfr3N534K/+ mice: long bone length; assay type: in vivo
Method: To explore the effectiveness of TYRA-300 in an additional model of FGFR3-related chondrodysplasia, TYRA-300 was evaluated in a Tg-CMV^Cre/+/Fgfr3^N534K/+ mouse model of HCH ([42]). This model is driven by the Fgfr3 N534K mutation, which corresponds to the human FGFR3 N540K mutation ([9], [43]). This model closely recapitulates the skeletal phenotype of HCH in humans, with a milder disproportionate short stature phenotype ([42]). […] Because the goal of treatment with TYRA-300 is to […] Fgfr3 signaling levels, Fgfr3^N534K/+ mice were administered a lower dose of 1.8 mg/kg TYRA-300 daily for the full study. Mice were treated for 21 days, from 3 to 24 days of age. Treatment was started at an older age in the HCH model than in the ACH model, as children with HCH are often diagnosed later than children with ACH.
Tg-CMV^Cre/+/Fgfr3^N534K/+ mice were tattooed and assigned to treatment groups within each litter at 3 days of age (wild-type mice, Fgfr3^N534K/+ mice treated with vehicle, or Fgfr3^N534K/+ mice treated with 1.8 mg/kg TYRA-300). TYRA-300 was dissolved in aqueous HCl (3.5 mM) containing 5% DMSO and administered subcutaneously to Fgfr3^N534K/+ mice (n = 9) for 21 days. The vehicle was administered to wild-type (n = 12) or Fgfr3^N534K/+ mice (n = 11) for 21 days. Subcutaneous administration was used for this study rather than oral gavage due to the size of the mice. Clinical observations, nasoanal length, and tail length measurements were performed every 3 days, and body weights were collected daily.
Whole body x-ray images were taken of all animals by Faxitron specimen radiography MX-20 (Faxitron X-Ray LLC) following terminal sacrifice. The length of the L4–L6 lumbar vertebra segment was also measured for each animal using calipers, and the height of the L5 vertebral body was measured from Alcian blue/Sirius red images. Long bones and the skull were then excised, and their dimensions were measured using calipers (VWRi819-0013, VWR International). The transverse and sagittal diameters of the foramen magnum were also measured using calipers for the Fgfr3^Y367/+ model, and measured using the μCT images for the Fgfr3^N534K/+ model.

[3] = system: Fgfr3^N534K/+ mouse model of HCH; assay: Fgfr3N534K/+ mice: long bone length; assay type: in vivo; conditions: 2.4 mg/kg dose, data not shown
[4] = 12 mg/kg oral daily from week 4, week 3 of age (before treatment)
[5] = 12 mg/kg oral daily from week 4, week 4 of age (start of treatment)
[6] = 12 mg/kg oral daily from week 4, week 5 of age
[7] = 12 mg/kg oral daily from week 4, week 6 of age
[8] = 12 mg/kg oral daily from week 4, week 7 of age
[9] = 12 mg/kg oral daily from week 4, week 8 of age
[10] = 14 mg/kg oral daily from week 4, week 3 of age (before treatment)
[11] = 14 mg/kg oral daily from week 4, week 4 of age (start of treatment)
[12] = 1.8 mg/kg daily s.c. for 21 days, 3 to 24 days of age
[13] = Fgfr3N534K/+ mice + TYRA-300, individual animal values, in mm (unit assumed)

C[C@@H](Oc1ccc2[nH]nc(-c3ccc(N4CC5(C4)CN(S(C)(=O)=O)C5)nc3)c2c1)c1c(Cl)cncc1Cl [TYRA-300]
nasoanal length and tibia and femur length vs vehicle (wild-type C57BL/6J mice; 8 mg/kg and 10 mg/kg, data not shown, P < 0.05): significant increases
tail length and tibia and femur length vs vehicle (wild-type C57BL/6J mice; 12 mg/kg and 14 mg/kg oral once daily, 4 weeks): increased significantly and dose-dependently
nasoanal length, individual mice (wild-type C57BL/6J mice; [4]): 6.5 and 7.5 (2×) and 7.3 and 7 (3×) and 6.8 (2×) and 6.2 and 7.2 and 6
tail length, individual mice (wild-type C57BL/6J mice; [4]): 5.7 and 6.3 and 6 (2×) and 6.2 and 5.6 and 5.5 and 6.4 and 6.6 and 5.9 and 5.3 and 5.8
nasoanal length, individual mice (wild-type C57BL/6J mice; [5]): 7.7 (3×) and 8.2 and 7.8 (3×) and 8 (2×) and 7.2 and 8.3 and 7.3
tail length, individual mice (wild-type C57BL/6J mice; [5]): 5.9 and 7.2 (2×) and 6.9 (2×) and 6.7 and 6.8 and 6.3 and 6.4 (2×) and 5.7 and 6.5
nasoanal length, individual mice (wild-type C57BL/6J mice; [6]): 8.2 and 8.6 (3×) and 8.5 (2×) and 8.7 and 8.3 (3×) and 9 and 7.7
tail length, individual mice (wild-type C57BL/6J mice; [6]): 6.8 and 7.2 (3×) and 7.3 (2×) and 7.1 (2×) and 6.7 and 7.4 and 7.8 and 6.5
nasoanal length, individual mice (wild-type C57BL/6J mice; [7]): 8.6 (2×) and 8.8 (2×) and 8.7 (3×) and 9.2 and 9.1 and 9 and 9.3 and 8.4
tail length, individual mice (wild-type C57BL/6J mice; [7]): 7.3 and 7.8 (2×) and 7.9 and 7.7 (3×) and 7.6 (2×) and 8 and 8.2 and 7
nasoanal length, individual mice (wild-type C57BL/6J mice; [8]): 8.8 and 9.1 (2×) and 9 (3×) and 9.4 and 9.3 and 9.5 and 10 and 9.2 and 8.7
tail length, individual mice (wild-type C57BL/6J mice; [8]): 7.9 (2×) and 8 (3×) and 8.2 and 7.7 (2×) and 8.3 and 8.5 and 7.3 and 8.1
nasoanal length, individual mice (wild-type C57BL/6J mice; [9]): 9.2 (3×) and 9.3 (5×) and 9.4 and 9.5 and 10 and 8.8
tail length, individual mice (wild-type C57BL/6J mice; [9]): 7.8 and 8.2 and 7.9 and 8.1 (4×) and 8.3 and 8 and 8.5 and 8.6 and 7.5
femur length by calipers, individual mice (wild-type C57BL/6J mice; 12 mg/kg oral daily): 13.78 and 13.37 and 14.79 and 13.97 and 13.86 and 12.93 and 14.23 and 13.91 and 13.8 and 13.51 and 13.98
tibia length by calipers, individual mice (wild-type C57BL/6J mice; 12 mg/kg oral daily): 15.08 and 16.34 and 16.3 and 17.19 and 16.6 and 15.75 and 16.27 and 16.06 and 16.41 and 16.46 and 17
femurs longer than vehicle (wild-type C57BL/6J mice; 12 mg/kg oral once daily): 5.0%
tibias longer than vehicle (wild-type C57BL/6J mice; 12 mg/kg oral once daily): 3.9%
nasoanal length, individual mice (wild-type C57BL/6J mice; [10]): 6.6 and 7.6 (2×) and 7.3 (2×) and 6.7 and 6.3 and 7.1 and 7.2 (2×) and 6.8 and 6.9
tail length, individual mice (wild-type C57BL/6J mice; [10]): 5.5 (2×) and 6 (2×) and 6.4 (2×) and 6.1 and 5.3 and 5.7 and 5.6 (3×)
nasoanal length, individual mice (wild-type C57BL/6J mice; [11]): 7.7 (2×) and 8.2 (2×) and 7.8 (4×) and 8 (2×) and 7.3 and 7.2
tail length, individual mice (wild-type C57BL/6J mice; [11]): 6.3 and 6.9 (2×) and 7 (2×) and 6.8 and 6 (2×) and 6.4 (2×) and 6.6 and 6.7
nasoanal length, individual mice (wild-type C57BL/6J mice; 14 mg/kg oral daily from week 4, week 5 of age): 8.7 (2×) and 8.5 and 8.6
tail length, individual mice (wild-type C57BL/6J mice; 14 mg/kg oral daily from week 4, week 5 of age, in cm (unit assumed)): 7 and 7.6 and 7.4 and 7.5
femur length by calipers, individual mice (wild-type C57BL/6J mice; 14 mg/kg oral daily): 14.47 and 14.13 and 13.58 and 13.93 and 13.04 and 14.9 and 14.56 and 14.74 and 14.08 and 15.12 and 14.91 and 13.6
tibia length by calipers, individual mice (wild-type C57BL/6J mice; 14 mg/kg oral daily): 16.57 and 16.39 and 16.89 and 16.61 and 16.95 and 17.24 and 16.1 and 17.47 and 16.69 and 16.27
increase in nasoanal length vs vehicle (wild-type C57BL/6J mice; 14 mg/kg oral once daily, 4 to 8 weeks of age): 7.3%
femurs longer than vehicle (wild-type C57BL/6J mice; 14 mg/kg oral once daily): 8.2%
tibias longer than vehicle (wild-type C57BL/6J mice; 14 mg/kg oral once daily): 6.4%
body weight among the treatment groups (wild-type C57BL/6J mice; oral once daily, data not shown): no difference
bone volume of the SOC (microCT) vs vehicle [1]: significant increase
increase in bone mineral density (BMD) vs vehicle ([1]; femoral metaphyses): 21.4%
increase in bone volume-to-tissue volume ratio (BV/TV) vs vehicle ([1]; femoral metaphyses): 73.3%
increase in femur length vs vehicle [2, 12]: 3.70%
increase in humerus length vs vehicle [2, 12]: 3.22%
increase in tibia length vs vehicle [2, 12]: 3.75%
increase in ulna length vs vehicle [2, 12]: 5.03%
source data of Figure 4A (sheet "4A"): long bone length, bone not given [2, 13]: 12.31 and 12.55 and 12.375 and 11.91 and 12.485 and 12.9 and 12.58 and 12.185 and 11.555
source data of Figure 4B (sheet "4B"): long bone length, bone not given [2, 13]: 10.06 and 10.16 and 10.36 and 9.8 and 10.2 and 10.18 and 10.1 and 10.15 and 9.47
source data of Figure 4C (sheet "4C"): long bone length, bone not given [2, 13]: 10.705 and 10.605 and 11.015 and 10.35 and 10.8 and 10.795 and 10.61 and 11.13 and 10.195
source data of Figure 4D (sheet "4D"): long bone length, bone not given [2, 13]: 8.28 and 8.42 and 8.455 and 8.1 and 8.32 and 8.43 and 8.22 and 8.35 and 8.08
average normalization of long bone length toward wild-type ([2]; HCH model, 1.8 mg/kg): 25%
phenotypic observations in preliminary dose exploration [3]: phenotypic signs consistent with the Fgfr3^–/– model were observed
